In this assay the test system is U-373MG cells. Format: cell-based, human.

Where two headings read alike, the source gives them in different places.

Regarding `CN[C@@H]1C[C@H]2O[C@@](C)([C@@H]1OC)n1c3ccccc3c3c4c(c5c6ccccc6n2c5c31)C(=O)NC4` [Staurosporine, staurosporine], the “effect on the difference in plaque size between VSV-rp30 and VSV-G/GFP” value (from here on “effect on the difference”) was “significant attenuation of the difference in plaque size”.

Turning to `O=c1c(-c2ccc(O)cc2)coc2cc(O)cc(O)c12` [Genistein, genistein], the “effect on the difference” value (10 μM, 24 hrs) was “significantly attenuated the difference in plaque size”.

On to tyrphostin 51, for which the “effect on the difference” value was “no significant effect on the difference in plaque size”.

The values are drawn from patent publication US8481297B2 (priority 2009, dated 2013).
